In publication PMC10461232, “Structure-Based Design of Transport-Specific Multitargeted One-Carbon Metabolism Inhibitors in Cytosol and Mitochondria” (Journal of Medicinal Chemistry, 2023):
Where two headings read alike, the source gives them in different places.

Key:
RT16 (FRα) CHO cells = test: Growth inhibition, RT16 CHO cells expressing human FRα; type: cell-based, Chinese hamster
human GARFTase = target: T1, human GARFTase (Homo sapiens, UniProt P22102); test: GARFTase inhibition assay, Ki (10-formyl THF to THF, absorbance 298 nm); type: biochemical; conditions: purified His-GARFTase, 40 μM 10-formyl THF, 37 °C; mean (SD), at least 3 replicates
T1 construct: formyltransferase domain of human GARFTase (residues 808–1010); made in house; host or cells: E. coli Rosetta (DE3)pLysS
T1 sequence (P22102 808-1010): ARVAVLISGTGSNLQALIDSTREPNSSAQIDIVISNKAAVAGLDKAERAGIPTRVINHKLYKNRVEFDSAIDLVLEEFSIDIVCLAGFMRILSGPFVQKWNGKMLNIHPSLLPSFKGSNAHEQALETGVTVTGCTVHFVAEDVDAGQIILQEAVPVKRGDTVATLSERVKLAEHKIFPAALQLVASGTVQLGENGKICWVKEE

[1] = tested on: R2 (MTXRIIOuaR2-4) CHO cells; test: Growth inhibition, transporter-null R2 CHO cells; type: cell-based, Chinese hamster; conditions: Cricetulus griseus, 96 h, read-out: IC50 R2
PC43-10 (RFC) CHO cells = test: Growth inhibition, PC43-10 CHO cells expressing human RFC; type: cell-based, Chinese hamster; conditions: Cricetulus griseus, 96 h, read-out: IC50 PC43-10 (RFC)
KB (RFC/PCFT/FRα) cells = test: Growth inhibition, KB nasopharyngeal carcinoma cells; type: cell-based, human; conditions: folate-free RPMI 1640, 2 nM leucovorin, mean (SE)
Experimental: The CHO cells were cultured in α-minimal essential medium (MEM) supplemented with 10% bovine calf serum (Fisher Scientific), penicillin (1000 U/mL)/streptomycin (1000 μg/mL), and 2 mM L-glutamine at 37 °C with 5% CO2. All of the R2 transfected cells (PC43-10, RT16, R2/PCFT4) were cultured in complete α-MEM media plus 1 mg/mL G418. Prior to the cytotoxicity assays (see below), RT16 and D4 cells were cultured for 3 days in complete folate-free RPMI 1640 (without added folate), and R2/PCFT4 and R2 cells were cultured in complete folate-free RPMI 1640 supplemented with dialyzed fetal bovine serum (Fisher Scientific) and 25 nM leucovorin plus 1 mg/mL G418. KB cells were routinely cultured in folate-free RPMI 1640 medium, supplemented with 10% fetal bovine serum (Fisher Scientific), penicillin-streptomycin solution, and 2 mM L-glutamine at 37 °C with 5% CO2.
For growth inhibition studies, cells (CHO, KB) were plated in 96-well dishes (∼2500–5000 cells/well, total volume of 200 μL medium) over a range of antifolate concentrations.[69],[77] The medium was folate-free RPMI 1640 with 10% dialyzed serum and antibiotics supplemented with 25 nM leucovorin for experiments with R2, PC43-10, and R2/PCFT4 cells. For experiments with RT16, D4, and KB cells, cells were cultured in folate-free RPMI medium with 10% dialyzed fetal bovine serum and antibiotics; the medium was supplemented with 2 nM leucovorin. […] Incubations were routinely for up to 96 h. Viable cells (reflecting cell viability) were assayed with Cell Titer Blue reagent (Promega, Madison, WI), with fluorescence measured (590 nm emission, 560 nm excitation) with a fluorescence plate reader.

D4 (FRβ) CHO cells = test: Growth inhibition, D4 CHO cells expressing human FRβ; type: cell-based, Chinese hamster; conditions: for IC50: Cricetulus griseus, CHO
HPNE (RFC) cells = test: Proliferation inhibition, HPNE normal pancreatic epithelial cells; type: cell-based; conditions: Homo sapiens, folate- and glycine-free RPMI, 25 nM leucovorin
Excerpt: (§1) The RFC-, PCFT-, and FR-null MTXRIIOua^R2–4 (R2), and RFC- (PC43-10), PCFT- (R2/PCFT4), FRα- (RT16), and FRβ- (D4) expressing CHO sublines were previously described.[62]−[64],[76] HPAC pancreatic cancer cells were generously provided by Dr. Yubin Ge (Karmanos Cancer Institute, Detroit, MI). Human pancreatic normal epithelial (HPNE) cells[67] were a gift from M. Oulette (University of Nebraska Medical Center, Omaha, NE). KB human nasopharyngeal carcinoma cells were purchased from the American Type Culture Collection (Manassas, VA). All human cell lines were validated by STR analysis by Genetica DNA Laboratories (Burlington, NC). Cell lines were tested for Mycoplasma by PCR using a Mycloplasma testing kit (Venor GeM Mycoplasma Detection Kit, Sigma). Frozen stocks were generated from authenticated Mycoplasma-free cultures.

[2] = tested on: R2/PCFT4 (PCFT) CHO cells; test: Growth inhibition, R2/PCFT4 CHO cells expressing human PCFT; type: cell-based, Chinese hamster; conditions: Cricetulus griseus, 96 h, read-out: IC50 R2/PCFT4 (PCFT)
HPAC (RFC/PCFT) cells = test: Proliferation inhibition, HPAC pancreatic adenocarcinoma cells; type: cell-based, human; conditions: HPAC cells, folate- and glycine-free RPMI, 25 nM leucovorin, mean (SE)
Excerpt: as §1

human ATIC = target: T2, human ATIC (Homo sapiens, UniProt P31939); test: AICARFTase (ATIC) inhibition assay, Ki; type: biochemical; conditions: for Ki: purified His-ATIC, AICARFTase activity, 50 μM 10-formyl THF, 25 °C, mean (SD), at least 3 replicates
T2 construct: N-terminal His6-tagged full-length human ATIC; made in house; host or cells: E. coli Rosetta (DE3)pLysS
Experimental: The cells were grown at 37 °C in 1 L cultures of LB media containing […] and […] until OD600 reached 0.6. Protein expression was induced by the addition of isopropyl β-D1-thiogalactopyranoside (IPTG, 500 μM).
His-ATIC was purified by Ni-NTA chromatography (Gold Biotechnology).[36] […] His-ATIC was eluted in 1 column volume fractions, 5 times with buffer containing 300 mM imidazole, 25 mM Tris-HCl, pH 7.5, 300 mM NaCl, and 5 mM β-Me. Size exclusion chromatography on a Superdex 200 16/60 (GE Healthcare) column was used for final purification using 20 mM Tris-HCl, pH 7.5, 150 mM NaCl, 50 mM KCl, 5 mM EDTA, and 5 mM dithiothreitol.
MTHFD2 activities were assayed by a reaction with methylene THF and NAD^+. NADH production was measured by fluorescence (excitation 340 nm, emission 480 nm). Reaction conditions included 100 nM MTHFD2, 5 μM methylene THF, and concentrations of small-molecule inhibitor ranging from 0.02 nM to 2000 nM; NAD^+ (2.5 mM) was added to initiate the reaction. The reaction buffer consisted of 50 mM Tris-HCl, pH 7.5, 250 mM NaCl, 5 mM magnesium chloride, 5% glycerol, and 0.5 mM TCEP. […] To assay SHMT1 or SHMT2 (SHMT1/2) enzymes, a coupled reaction with His-MTHFD2 in 200-fold molar excess was used where the production of NADH was monitored by fluorescence with excitation at 360 nm and emission at 470 nm at 25 °C. The reactions contained 5 nM His-SHMT1/2, 50 μM THF, 20 mM serine, 10 μM His-MTHFD2, 2.5 mM NAD^+, and a range of inhibitor concentrations (final concentrations). The reactions were performed in buffer containing 20 mM sodium phosphate, pH 7.5, 100 mM KCl, 0.2 mM EDTA, and 5 mM β-Me. […] To calculate IC50 values for each inhibitor, initial velocities were graphed as a function of inhibitor concentrations and fit with a three-parameter nonlinear regression (GraphPad Prism 8.0). The equation [Ki = IC50/([S]/KM + 1)] was used to convert IC50’s to Ki values.

SHMT1 = target: T3, SHMT1 (Homo sapiens, UniProt P34896); test: SHMT1 inhibition assay coupled with MTHFD2, Ki; type: biochemical; conditions: purified His-SHMT1, 50 μM THF, 25 °C; mean (SD), at least 3 replicates
T3 construct: full-length SHMT1 with an N-terminal His6-tag; made in house; host or cells: E. coli Rosetta (DE3)pLysS
T3 sequence (P34896 1-483): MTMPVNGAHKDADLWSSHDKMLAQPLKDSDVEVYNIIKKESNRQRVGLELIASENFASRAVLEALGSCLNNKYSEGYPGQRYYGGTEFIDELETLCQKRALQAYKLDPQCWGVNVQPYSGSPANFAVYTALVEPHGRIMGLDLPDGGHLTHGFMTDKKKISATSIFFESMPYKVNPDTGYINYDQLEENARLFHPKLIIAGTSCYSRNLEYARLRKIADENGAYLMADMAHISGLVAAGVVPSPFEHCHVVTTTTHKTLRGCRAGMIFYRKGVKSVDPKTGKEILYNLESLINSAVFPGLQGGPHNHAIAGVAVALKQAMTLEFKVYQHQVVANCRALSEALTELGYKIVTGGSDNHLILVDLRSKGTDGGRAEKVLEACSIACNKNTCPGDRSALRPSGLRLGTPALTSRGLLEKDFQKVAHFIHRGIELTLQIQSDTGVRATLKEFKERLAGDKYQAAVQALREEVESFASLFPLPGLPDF
Experimental: Kinetic measurements were recorded in triplicate using a flat, black-bottom, black-walled 96-well plate (Greiner Bio-One, 655900) and a BioTek Synergy Neo2 Plate Reader. […] To assay SHMT1 or SHMT2 (SHMT1/2) enzymes, a coupled reaction with His-MTHFD2 in 200-fold molar excess was used where the production of NADH was monitored by fluorescence with excitation at 360 nm and emission at 470 nm at 25 °C. The reactions contained 5 nM His-SHMT1/2, 50 μM THF, 20 mM serine, 10 μM His-MTHFD2, 2.5 mM NAD^+, and a range of inhibitor concentrations (final concentrations). The reactions were performed in buffer containing 20 mM sodium phosphate, pH 7.5, 100 mM KCl, 0.2 mM EDTA, and 5 mM β-Me. A BioTek Synergy Neo2 Plate Reader was used to record kinetic measurements in triplicate in a UV-transparent 96-well plate (Costar 3635) for GARFTase and AICARFTase assays and a black-well, black-bottom 96-well plate (Corning 3603). To calculate IC50 values for each inhibitor, initial velocities were graphed as a function of inhibitor concentrations and fit with a three-parameter nonlinear regression (GraphPad Prism 8.0). The equation [Ki = IC50/([S]/KM + 1)] was used to convert IC50’s to Ki values.

[3] = Cricetulus griseus, 96 h, CHO cells expressing human FRα, 96 h, 2 nM leucovorin, mean (SE), read-out: IC50 RT16 (FRα)
[4] = transporter-null CHO cells, 25 nM leucovorin, mean (SE)
[5] = CHO cells expressing human RFC, 25 nM leucovorin, mean (SE)
[6] = 96 h, CHO cells expressing human FRβ, 96 h, 2 nM leucovorin, mean (SE), read-out: IC50 D4 (FRβ)
[7] = CHO cells expressing human PCFT, 25 nM leucovorin, mean (SE)
[8] = CHO cells expressing human FRα, 96 h, 2 nM leucovorin, mean (SE), read-out: IC50 RT16 (FRα)

T2 sequence (P31939 whole entry): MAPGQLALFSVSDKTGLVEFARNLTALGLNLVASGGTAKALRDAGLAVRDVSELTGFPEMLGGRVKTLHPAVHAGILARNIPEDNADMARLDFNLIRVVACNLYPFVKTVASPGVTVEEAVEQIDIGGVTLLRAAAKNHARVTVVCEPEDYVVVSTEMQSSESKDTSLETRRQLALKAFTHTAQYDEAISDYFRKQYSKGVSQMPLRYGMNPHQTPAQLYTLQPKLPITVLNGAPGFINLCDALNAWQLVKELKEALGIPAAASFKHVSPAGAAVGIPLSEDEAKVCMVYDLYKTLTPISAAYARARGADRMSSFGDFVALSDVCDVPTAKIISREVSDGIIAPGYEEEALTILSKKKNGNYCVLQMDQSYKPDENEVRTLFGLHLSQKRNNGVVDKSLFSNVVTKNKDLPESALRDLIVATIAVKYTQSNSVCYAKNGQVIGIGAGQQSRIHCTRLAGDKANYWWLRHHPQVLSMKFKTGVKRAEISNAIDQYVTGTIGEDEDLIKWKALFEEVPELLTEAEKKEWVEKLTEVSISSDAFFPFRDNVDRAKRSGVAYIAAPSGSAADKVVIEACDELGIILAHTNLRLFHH

Row | SMILES | IC50 (KB (RFC/PCFT/FRα) cells; Homo sapiens, KB) [nM] | IC50 (HPAC (RFC/PCFT) cells; Homo sapiens, HPAC) [nM] | Ki (human ATIC) [nM] | Ki (human GARFTase) [nM] | IC50 (KB (RFC/PCFT/FRα) cells) [nM] | IC50 (HPNE (RFC) cells) [nM] | IC50 [2] [nM] | IC50 (RT16 (FRα) CHO cells; [3]) [nM] | IC50 [1, 4] [nM] | IC50 (PC43-10 (RFC) CHO cells; [5]) [nM] | IC50 (D4 (FRβ) CHO cells; [6]) [nM] | IC50 [2, 7] [nM] | IC50 (RT16 (FRα) CHO cells; [8]) [nM] | further results
1 | Nc1nc2ccn(CCCCc3ccc(C(=O)N[C@@H](CCC(=O)O)C(=O)O)c(F)c3)c2c(=O)[nH]1 [Compound 1, (4-(4-(2-Amino-4-oxo-3,4-dihydro-5H-pyrrolo[3,2-d]pyrimidin-5-yl)butyl)-2-fluorobenzoyl)-L-glutamic Acid] | 1.3 | 196 | – | 3130 | 1.25 | > 5000 | 479 | – | – | – | – | – | – | IC50 (RT16 (FRα) CHO cells; Cricetulus griseus, RT16, read-out: IC50 FRα (cell-based inhibition), Figure 14, from Table 3 (RT16 cells)): 1 nM; IC50 ([1]; CHO): > 1000 nM; IC50 (PC43-10 (RFC) CHO cells): 224 nM; IC50 (D4 (FRβ) CHO cells; read-out: IC50 FRβ (cell-based inhibition), Figure 14, from Table 3 (D4 cells)): 1 nM
2 | Nc1nc2ccn(CCCSc3ccc(C(=O)N[C@@H](CCC(=O)O)C(=O)O)cc3)c2c(=O)[nH]1 [Compound 7, (4-((3-(2-Amino-4-oxo-3,4-dihydro-5H-pyrrolo[3,2-d]pyrimidin-5-yl)propyl)thio)benzoyl)-L-glutamic Acid] | 31.5 | > 5000 | 4810 | – | 31.5 | > 5000 | > 1000 | < 3 | > 1000 | > 1000 | – | – | 3.13 | –

More lines, main results first:

Row | IC50 (KB (RFC/PCFT/FRα) cells; Homo sapiens, KB) [nM] | IC50 (HPAC (RFC/PCFT) cells; Homo sapiens, HPAC) [nM] | Ki (human ATIC) [nM] | SMILES | Ki (human GARFTase) [nM] | IC50 (KB (RFC/PCFT/FRα) cells) [nM] | IC50 (HPNE (RFC) cells) [nM] | IC50 [2] [nM] | IC50 (RT16 (FRα) CHO cells; [3]) [nM] | IC50 [1, 4] [nM] | IC50 (PC43-10 (RFC) CHO cells; [5]) [nM] | IC50 (D4 (FRβ) CHO cells; [6]) [nM] | IC50 [2, 7] [nM] | IC50 (RT16 (FRα) CHO cells; [8]) [nM] | further results
3 | 6.73 | 310 | 13400 | Nc1nc2ccn(CCCc3ccc(C(=O)N[C@@H](CCC(=O)O)C(=O)O)cc3)c2c(=O)[nH]1 [Compound 2] | – | – | > 5000 | – | 49.9 | > 1000 | 41.9 | 2.37 | 191 | – | difference between D4 (FRβ) and RT16 (FRα) IC50 (D4 (FRβ) CHO cells; RT16 versus D4 CHO cells): 20- to 40 fold; IC50 (HPAC (RFC/PCFT) cells): 310 nM
4 | 6 | 1600 | 930 | Nc1nc2ccn(CCCCc3csc(C(=O)N[C@@H](CCC(=O)O)C(=O)O)c3F)c2c(=O)[nH]1 [Compound 14, (4-(4-(2-Amino-4-oxo-3,4-dihydro-5H-pyrrolo[3,2-d]pyrimidin-5-yl)butyl)-3-fluorothiophene-2-carbonyl)-L-glutamic Acid] | 2490 | – | > 5000 | – | 19.8 | > 1000 | > 1000 | 6.2 | > 1000 | – | fold better than 1, ATIC (human ATIC; ratio of Ki values relative to compound 1): ~4 fold
5 | 2.58 | 3210 | – | Nc1nc2ccn(CCCCc3ccc(C(=O)N[C@@H](CCC(=O)O)C(=O)O)s3)c2c(=O)[nH]1 [Compound 16] | – | – | > 5000 | – | < 3 | > 1000 | > 1000 | – | > 1000 | 2.82 | Ki (SHMT1): 1040 nM
